Measurements: patent US11345701B1, “KRAS mutant protein inhibitors” (Jacobio Pharmaceuticals Co., Ltd., priority 2021, dated 2022)

How the values were obtained:
[1] = Dog pharmacokinetic study; format: in vivo, beagle dog; conditions: for CL / VSS / AUC0-24h / Cmax / Oral BA (F %): beagle dog; for CL / VSS: 1 mg/kg, iv; for AUC0-24h / Cmax / Oral BA (F %) / AUC0-24 h relative to the control compound Amg-510: 3 mg/kg, po
Experimental: (§1) The purpose of this study was to evaluate the pharmacokinetic properties of compounds in beagle dog following single dose administration. The day before administration, dogs were fasted overnight and free access to water. Four beagle dogs were needed for each compound and the four dogs were divided into two groups, group A and group B (one male(♂) and one female (♀) in each group). Dogs in group A were treated with a single 1 mg/kg dose of compound (iv). Dogs in group B were treated with a single 3 mg/kg dose of compound (po). For dogs in group A, blood samples were collected at pre-dose, and at the time point of 0.083, 0.25, 0.5, 1, 2, 4, 6, 8 and 24 h post-dose. For dogs in group B, blood samples were collected at pre-dose, and at the time point of 0.25, 0.5, 1, 2, 4, 6, 8 and 24 h post-dose. Blood samples were placed on ice until centrifugation to obtain plasma samples. The plasma samples were stored at −80° C. until analysis. The concentration of compound in plasma samples was determined using a LC-MS/MS method.

[2] = molecular target: HIS-KRAS(G12C) (Homo sapiens (Human), UniProt P01116, G12C); assay: SOS1 catalyzed nucleotide exchange assay (TR-FRET); format: biochemical
Chain of HIS-KRAS(G12C) (P01116 other isoform, or with tags, fused parts or gaps G12C): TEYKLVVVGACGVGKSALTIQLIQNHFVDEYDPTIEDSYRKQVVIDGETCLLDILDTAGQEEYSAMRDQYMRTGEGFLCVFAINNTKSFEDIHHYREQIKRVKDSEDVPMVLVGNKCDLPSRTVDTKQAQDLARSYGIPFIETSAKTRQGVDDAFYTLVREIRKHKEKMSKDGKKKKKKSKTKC
Experimental: TR-FRET signals were then read on Tecan Spark multimode microplate reader. […] TR-FRET ratios for each individual wells were calculated by equation: TR-FRET ratio=(Signal F515/Signal F486)*10000. Then the data were analyzed using a 4-parameter logistic model to calculate IC50 values.

[3] = Mouse pharmacokinetic study; format: in vivo, Balb/c mouse
Experimental: The purpose of this study was to evaluate the pharmacokinetic properties of compounds in Balb/c mouse (♀) following single dose administration. The day before administration, mice were fasted overnight and free access to water. Six mice were needed for each compound and the six mice were divided into two groups (n=3/group), group A and group B. Mice in group A were treated with a single 3 mg/kg dose of compound (iv). Mice in group B were treated with a single 10 mg/kg dose of compound (po). For each mouse in group A, blood samples were collected at pre-dose, and at the time point of 0.083, 0.25, 0.5, 1, 2, 4, 6, 8 and 24 h post-dose. For each mouse in group B, blood samples were collected at pre-dose, and at the time point of 0.25, 0.5, 1, 2, 3, 4, 6, 8 and 24 h post-dose. Blood samples were placed on ice until centrifugation to obtain plasma samples. The plasma samples were stored at −80° C. until analysis. The concentration of compound in plasma samples was determined using a LC-MS/MS method.

[4] = tested on: SW837 (KRAS^G12C) xenograft; assay: Safety exploration in SW837 (KRAS G12C) xenograft model; format: in vivo; conditions: 400 mg/kg, po, QD for 22 days, female NOD SCID mice, FIG. 2
Experimental: SW837 (KRAS^G12C) cells (1.0E+07 cells) were injected subcutaneously into the right flank of female NOD SCID mice (6-8 weeks) in a mixture with PBS and Matrigel (Corning) (PBS/Matrigel=1:1(v/v)). Mice were monitored daily and caliper measurements began when tumors became visible. Tumor volume was calculated by measuring two perpendicular diameters using the following formula: (L*W^2)/2 in which L and W refer to the length and width tumor diameter respectively. After mice were grouped to study the efficacy, the remaining mice (n=8) were used to explore the safety. The mice were treated with 400 mg/kg Compound 2-1 (po, QD) for 22 days, and mice body weight was measured twice a week during treatment. From FIG. 2, it can be seen that the Compound 2-1 has good safety.

[5] = tested on: NCI-H358 cells expressing KRAS G12C mutant protein; assay: Phospho-ERK1/2(THR202/TYR204) HTRF assay; format: cell-based
Experimental: The NCI-H358 cells in culture medium were seeded in 96-well plates at a concentration of 40,000 cells/well and then put in a 37° C./5% CO2 cell incubator to incubate overnight. […] After 2 hours incubation in a 37° C./5% CO2 cell incubator, the assay medium in 96-well plates was removed, then 50 μL of 1× blocking reagent-supplemented lysis buffer (Cisbio) was added and the plates were incubated at 25° C. for 45 min with shaking. 10 μL of cell lysates from the 96-well plates were transferred to a 384-well plate (Greiner) containing 2.5 μL/well HTRF® pre-mixed antibodies (Cisbio 64AERPEH). Incubate 4 hours at 25° C. and then read HTRF signals on Tecan Spark multimode microplate reader. The data were analyzed using a 4-parameter logistic model to calculate IC50 values.

[6] = Cynomolgus monkey pharmacokinetic study; format: in vivo; conditions: for CL / VSS / AUC0-24h / Cmax / Oral BA (F %): cynomolgus monkey; for CL / VSS: 1 mg/kg, iv; for AUC0-24h / Cmax / Oral BA (F %) / AUC0-24 h relative to the control compound Amg-510: 3 mg/kg, po
Experimental: as §1, with “cynomolgus monkey” for “beagle dog”, “monkeys” for “dogs”, “monkeys are” for “beagle dogs were”, “male (♂)” for “male(♂)”, “Monkeys” for “Dogs”

[7] = Balb/c mouse (female), 3 mg/kg, iv
[8] = Balb/c mouse (female), 10 mg/kg, po

C=CC(=O)N1CCN(c2nc(=O)n(-c3c(C)ccnc3C(C)C)c3nc(-c4c(N)c(F)c(F)c(F)c4F)c(F)cc23)[C@@H](C)C1 (atropisomer, axis not shown; (M)) [Compound 2-1, (M)-4-((S)-4-acryloyl-2-methylpiperazin-1-yl)-7-(2-amino-3,4,5,6-tetrafluorophenyl)-6-fluoro-1-(2-isopropyl-4-methylpyridin-3-yl)pyrido[2,3-d]pyrimidin-2(1H)-one]
Pharmacokinetic properties in words ([1]; beagle dog model, compared with Amg-510): excellent pharmacokinetic properties
CL ([1]; female): 4.40 mL/min/kg
VSS ([1]; female): 0.295 L/kg
AUC0-24h ([1]; female): 5022 ng·h/mL
Cmax ([1]; female): 2330 ng/mL
Oral BA (F %) ([1]; female): 44.3%
CL ([1]; male): 4.15 mL/min/kg
VSS ([1]; male): 0.255 L/kg
AUC0-24h ([1]; male): 7308 ng·h/mL
Cmax ([1]; male): 4080 ng/mL
Oral BA (F %) ([1]; male): 60.9%
AUC0-24 h relative to the control compound Amg-510 ([1]; female beagle dog): more than 12 times
AUC0-24 h relative to the control compound Amg-510 ([1]; male beagle dog): more than 3 times
IC50 ([2]; GDP-loaded HIS-KRAS(G12C), 1 hour pre-incubation, TR-FRET): 1.19 nM
Inhibitory activity relative to the control compound Amg-510 ([2]; SOS1 catalyzed nucleotide exchange assay): about 2 times
CL [3, 7]: 38.9 mL/min/kg
Vss [3, 7]: 1.28 L/kg
AUC0-24h [3, 8]: 2618 ng·h/mL
Cmax [3, 8]: 2440 ng/mL
Oral BA (F %) [3, 8]: 58.9%
Pharmacokinetic properties in words ([3]; mouse model, 3 mg/kg iv and 10 mg/kg po): good pharmacokinetic properties
Safety judged from mice body weight [4]: good safety
IC50 ([5]; 2 hours incubation, read-out: p-ERK IC50): 14.5 nM
Inhibitory activity relative to the control compound Amg-510 ([5]; phospho-ERK1/2 HTRF assay): about 2 times
CL ([6]; female): 8.20 mL/min/kg
VSS ([6]; female): 0.507 L/kg
AUC0-24h ([6]; female): 2494 ng·h/mL
Cmax ([6]; female): 1060 ng/mL
Oral BA (F %) ([6]; female): 41.2%
CL ([6]; male): 8.26 mL/min/kg
VSS ([6]; male): 0.555 L/kg
AUC0-24h ([6]; male): 3253 ng·h/mL
Cmax ([6]; male): 1580 ng/mL
Oral BA (F %) ([6]; male): 54.1%
AUC0-24 h relative to the control compound Amg-510 ([6]; female cynomolgus monkey): more than 10 times
AUC0-24 h relative to the control compound Amg-510 ([6]; male cynomolgus monkey): more than 15 times
Pharmacokinetic properties in words ([6]; monkey model): excellent pharmacokinetic properties
